According to US11242337B2, “Compounds useful for treating gastrointestinal tract disorders” (Ardelyx, Inc., priority 2017, dated 2022):
Like-named read-outs stand apart in the source and are kept apart here.

Assays:
[1] = tested on: human duodenum monolayer culture; assay: Increased trans-epithelial resistance (TEER) in human organoid monolayer cell cultures; assay type: cell-based; conditions: 1 μM apical, baseline corrected
Experimental: Basal media (B consisted of advanced DMEM/F12 containing 10 mM HEPES (Invitrogen, 15630-080), 1:100 Glutamax (Invitrogen, 35050-061), and 1:100 penicillin/streptomycin (Invitrogen, 15140-122). Supplemented basal media (SBM) contained 1:100 N2 (Invitrogen, 17502-048), 1:50 B27 (Invitrogen, 12587-010), 1 mM N-acetylcysteine (Sigma, A9165), and 10 nM [Leu15]-gastrin I (Sigma, G9145). Growth factors used included 50 ng per mL mouse EGF (Peprotech, 315-09), 100 ng per mL mouse noggin (Peprotech, 250-38), 500 ng per mL human R-spondin 1 (R&D, 4645-RS), 100 ng per mL mouse Wnt-3a (R&D, 1324-WN), 20 μM Y-27632 (Tocris, 1254), 10 mM nicotinamide (Sigma, N0636), 500 nM A83-01 (Tocris, 2939), 10 μM SB202190 (Tocris, 1264). Transwells were 0.4 μm pore polyester membrane 24-well Transwell inserts (Corning). Cultures were incubated at 37° C. in 5% CO2.
Human duodenum organoids were cultured in WENRNAS (Wnt, EGF, noggin, R-spondin1, Nicotinamide, A83-01, SB202190) and typically grown for 7-12 days before being used to plate monolayer cultures. On day 0, organoid cultures embedded in Matrigel were treated with TrypLE Express to break organoids into small pieces and/or single cells. The cells were resuspended to 0.5×10^6 cells/mL in SBM containing WENRAY (Wnt, EGF, noggin, R-spondin1, A83-01, Y-27632). Following this step, 200 μL of cell suspension was plated into the apical side of a 24-well Transwell (100,000 cells/well) and 600 μL of SBM with WENRAY was added to the basolateral side. Duodenum cells were differentiated with ENA (EGF, noggin, A83-01) on day 3. The color of apical compartment turns from pink or orange to yellow due to the increase in NHE3 expression after differentiation.
Each human duodenum monolayer culture well was washed twice with fresh SBM on the apical side on day 6 or day 7 before dosing. All compound stocks were 10 mM dissolved DMSO. Each compound stock was individually mixed with fresh SBM to reach final compound concentration 1 μM and dosed only on the apical side of the monolayer (total volume 200 μl). DMSO at the equivalent concentration was used as the vehicle control. Duplicate wells were dosed for each compound. Transepithelial electrical resistance (TEER) was used as a quantitative technique to measure of tight junction permeability. TEER values were recorded (MERS00002, Millipore) before dosing and 30 mins and 1 hr after dosing for all wells. Each of the duplicate TEER values following treatment were corrected for the individual well baseline TEER. Baseline corrected TEER for each example compound was compared to the average of the DMSO wells and expressed as a percent TEER of vehicle control.

[2] = tested on: absorption of sodium from the intestinal lumen; assay: Inhibition of intestinal sodium absorption in mice; assay type: in vivo; conditions: CD-1 mice, 15 mg/kg oral gavage twice daily; for Fecal fluid content (Δ from vehicle): day 3, change from vehicle group mean; for response vs control in vivo at 15 mg/kg: Mus musculus, 72 h, day 3, normalized to dietary sodium intake
Method in brief: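 Male ~8-week CD-1 mice on chow with added 0.4% inorganic phosphorous, in metabolic cages after 3-day acclimation and 24-hr baseline collection. Urine sodium by ion chromatography, dried fecal sodium by MP-AES; day-3 24-hour excretion normalized to dietary sodium intake and expressed as % of vehicle mean; diarrhea and fecal fluid also recorded.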

[3] = 1 hr after dosing, read-out: TEER at 60 minutes (% of Vehicle)
[4] = 0.5 h, 30 mins after dosing, read-out: TEER at 30 minutes (% of Vehicle)
[5] = read-out: Fecal Na Excretion (% of vehicle)
[6] = read-out: Urinary Na Excretion (% of vehicle)

Row | Compound | activity at 1 µM [1, 3] [%] | activity at 1 µM [1, 4] [%] | Fecal fluid content (Δ from vehicle) [2] | response vs control in vivo at 15 mg/kg [2, 5] [%] | response vs control in vivo at 15 mg/kg [2, 6] [%]
1 | Cc1cc(Cl)cc2c1C[C@H](N1CCC[C@@H](N(C)C)C1)[C@H]2Oc1ccc(S(=O)(=O)NCCOCCOCCNC(=O)NCCCCNC(=O)NCCOCCOCCNS(=O)(=O)c2ccc(O[C@H]3c4cc(Cl)cc(C)c4C[C@@H]3N3CCC[C@@H](N(C)C)C3)c(F)c2)cc1F [Example 30, 3-[2-(2-[2-[(4-[[(1S,2S)-6-Chloro-2-[(3R)-3-(dimethylamino)piperidin-1-yl]-4-methyl-2,3-dihydro-1H-inden-1-yl]oxy]-3-fluorobenzene)sulfonamido]ethoxy]ethoxy)ethyl]-1-[4-([[2-(2-[2-[(4-[[(1S,2S)-6-chloro-2-[(3R)-3-(dimethylamino)piperidin-1-yl]-4-methyl-2,3-dihydro-1H-inden-1-yl]oxy]-3-fluorobenzene)sulfonamido]ethoxy]ethoxy)ethyl]carbamoyl]amino)butyl]urea; bis(trifluoroacetic acid)] | 100 to 130 | 100 to 130 | C (>10) | > 200 | 50 to 70
2 | O=C(NCCCCNC(=O)NCCOCCOCCNS(=O)(=O)c1ccc(O[C@H]2c3cc(Cl)cc(Cl)c3C[C@@H]2N2CCNCC2)cc1)NCCOCCOCCNS(=O)(=O)c1ccc(O[C@H]2c3cc(Cl)cc(Cl)c3C[C@@H]2N2CCNCC2)cc1 [Example 31, 3-[2-(2-[2-[(4-[[(1S,2S)-4,6-Dichloro-2-(piperazin-1-yl)-2,3-dihydro-1H-inden-1-yl]oxy]benzene)sulfonamido]ethoxy]ethoxy)ethyl]-1-[4-([[2-(2-[2-[(4-[[(1S,2S)-4,6-dichloro-2-(piperazin-1-yl)-2,3-dihydro-1H-inden-1-yl]oxy]benzene)sulfonamido]ethoxy]ethoxy)ethyl]carbamoyl]amino)butyl]urea; bis(trifluoroacetic acid)] | > 130 | 100 to 130 | B (5-10) | > 200 | 50 to 70
3 | Cc1cc(S(=O)(=O)NCCOCCOCCNC(=O)NCCCCNC(=O)NCCOCCOCCNS(=O)(=O)c2ccc(O[C@H]3c4cc(Cl)cc(Cl)c4C[C@@H]3N3CCNCC3)c(C)c2)ccc1O[C@H]1c2cc(Cl)cc(Cl)c2C[C@@H]1N1CCNCC1 [Example 32, 3-[2-(2-[2-[(4-[[(1S,2S)-4,6-Dichloro-2-(piperazin-1-yl)-2,3-dihydro-1H-inden-1-yl]oxy]-3-methylbenzene)sulfonamido]ethoxy]ethoxy)ethyl]-1-[4-([[2-(2-[2-[(4-[[(1S,2S)-4,6-dichloro-2-(piperazin-1-yl)-2,3-dihydro-1H-inden-1-yl]oxy]-3-methylbenzene)sulfonamido]ethoxy]ethoxy)ethyl]carbamoyl]amino)butyl]urea; bis(trifluoroacetic acid)] | > 130 | 100 to 130 | A (<5) | 150 to 200 | 50 to 70
4 | O=C(NCCCCNC(=O)NCCOCCOCCNS(=O)(=O)c1ccc(O[C@H]2c3cc(Cl)cc(Cl)c3C[C@@H]2N2CCNCC2)c(F)c1)NCCOCCOCCNS(=O)(=O)c1ccc(O[C@H]2c3cc(Cl)cc(Cl)c3C[C@@H]2N2CCNCC2)c(F)c1 [Example 33, 3-[2-(2-[2-[(4-[[(1S,2S)-4,6-Dichloro-2-(piperazin-1-yl)-2,3-dihydro-1H-inden-1-yl]oxy]-3-fluorobenzene)sulfonamido]ethoxy]ethoxy)ethyl]-1-[4-[[(2-(2-[2-[(4-[[(1S,2S)-4,6-dichloro-2-(piperazin-1-yl)-2,3-dihydro-1H-inden-1-y]oxy]-3-fluorobenzene)sulfonamido]ethoxy]ethoxy)ethyl]carbamoyl]amino)butyl]urea; bis(trifluoroacetic acid)] | > 130 | 100 to 130 | C (>10) | > 200 | < 50
5 | N#Cc1cc(Cl)cc2c1C[C@H](N1CCNCC1)[C@H]2Oc1ccc(S(=O)(=O)NCCOCCOCCNC(=O)NCCCCNC(=O)NCCOCCOCCNS(=O)(=O)c2ccc(O[C@H]3c4cc(Cl)cc(C#N)c4C[C@@H]3N3CCNCC3)cc2)cc1 [Example 41, 3-[2-(2-[2-[(4-[[(1S,2S)-6-Chloro-4-cyano-2-(piperazin-1-yl)-2,3-dihydro-1H-inden-1-yl]oxy]benzene)sulfonamido]ethoxy]ethoxy)ethyl]-1-[4-([[2-(2-[2-[(4-[[(1S,2S)-6-chloro-4-cyano-2-(piperazin-1-yl)-2,3-dihydro-1H-inden-1-yl]oxy]benzene)sulfonamido]ethoxy]ethoxy)ethyl]carbamoyl]amino)butyl]urea; bis(trifluoroacetic acid)] | 100 to 130 | 100 to 130 | B (5-10) | > 200 | < 50
6 | Cc1cc(S(=O)(=O)NCCOCCOCCNC(=O)NCCCCNC(=O)NCCOCCOCCNS(=O)(=O)c2ccc(O[C@H]3c4cc(Cl)cc(C#N)c4C[C@@H]3N3CCNCC3)c(C)c2)ccc1O[C@H]1c2cc(Cl)cc(C#N)c2C[C@@H]1N1CCNCC1 [Example 42, 3-[2-(2-[2-[(4-[[(1S,2S)-6-Chloro-4-cyano-2-(piperazin-1-yl)-2,3-dihydro-1H-inden-1-yl]oxy]-3-methylbenzene)sulfonamido]ethoxy]ethoxy)ethyl]-1-[4-([[2-(2-[2-[(4-[[(1S,2S)-6-chloro-4-cyano-2-(piperazin-1-yl)-2,3-dihydro-1H-inden-1-yl]oxy]-3-methylbenzene)sulfonamido]ethoxy]ethoxy)ethyl]carbamoyl]amino)butyl]urea; bis(trifluoroacetic acid)] | > 130 | 100 to 130 | B (5-10) | 150 to 200 | < 50
7 | N#Cc1cc(Cl)cc2c1C[C@H](N1CCNCC1)[C@H]2Oc1ccc(S(=O)(=O)NCCOCCOCCNC(=O)NCCCCNC(=O)NCCOCCOCCNS(=O)(=O)c2ccc(O[C@H]3c4cc(Cl)cc(C#N)c4C[C@@H]3N3CCNCC3)c(F)c2)cc1F [Example 43, 3-[2-(2-[2-[(4-[[(1S,2S)-6-Chloro-4-cyano-2-(piperazin-1-yl)-2,3-dihydro-1H-inden-1-yl]oxy]-3-fluorobenzene)sulfonamido]ethoxy]ethoxy)ethyl]-1-[4-([[2-(2-[2-[(4-[[(1S,2S)-6-chloro-4-cyano-2-(piperazin-1-yl)-2,3-dihydro-1H-inden-1-yl]oxy]-3-fluorobenzene)sulfonamido]ethoxy]ethoxy)ethyl]carbamoyl]amino)butyl]urea; bis(trifluoroacetic acid)] | 100 to 130 | 100 to 130 | C (>10) | > 200 | < 50
